# Measured values: US12240862B2, “Inhibitors of peptidylarginine deiminases” (Gilead Sciences, Inc., priority 2020, dated 2025)
# Target: T1, human PAD4 (Homo sapiens, UniProt Q9UM07)
# T1 construct: human PAD4 (NM_012387), A2P663, was PCR amplified; His-SUMO (N, cleaved yes); made in house; host or cells: E. coli BL21(DE3)
# Experiment: In vitro PAD4 BAEE biochemical assay
# Settings: human PAD4, BAEE substrate; 5 nM PAD4, 2 mM calcium chloride, 3 mM BAEE; geometric mean of multiple experiments
# In short: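 Ammonia generated from BAEE serves as the readout, measured by o-phthalaldehyde after EDTA termination. Final conditions: 5 nM human PAD4 (SUMO tag cleaved), 2 mM CaCl2, 3 mM BAEE, pH 7.6 MOPS buffer, 25 °C for 2 h following a 30-min compound preincubation.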
# T1 sequence (Q9UM07 2-663): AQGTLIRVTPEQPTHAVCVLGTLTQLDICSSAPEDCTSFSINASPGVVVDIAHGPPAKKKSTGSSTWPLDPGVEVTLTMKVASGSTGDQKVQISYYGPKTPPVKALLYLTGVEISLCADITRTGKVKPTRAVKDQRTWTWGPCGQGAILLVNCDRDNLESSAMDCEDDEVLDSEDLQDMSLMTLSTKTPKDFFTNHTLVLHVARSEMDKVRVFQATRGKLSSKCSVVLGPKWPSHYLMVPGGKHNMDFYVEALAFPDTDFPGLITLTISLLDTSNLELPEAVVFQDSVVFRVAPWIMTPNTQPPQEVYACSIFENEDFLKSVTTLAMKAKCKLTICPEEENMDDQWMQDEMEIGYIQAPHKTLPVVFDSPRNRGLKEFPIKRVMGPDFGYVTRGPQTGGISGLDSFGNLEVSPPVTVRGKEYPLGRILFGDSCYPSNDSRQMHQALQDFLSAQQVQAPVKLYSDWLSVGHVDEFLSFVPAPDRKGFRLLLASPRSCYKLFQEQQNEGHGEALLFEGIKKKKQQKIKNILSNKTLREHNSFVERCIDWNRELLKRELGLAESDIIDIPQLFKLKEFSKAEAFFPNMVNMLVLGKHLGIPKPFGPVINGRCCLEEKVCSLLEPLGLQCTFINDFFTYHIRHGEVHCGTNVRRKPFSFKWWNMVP
row,Compound,IC50
1,"COc1cc(C(=O)N2CCC[C@@H](N)C2)cc2nc(-c3cc4ccc(N(C(F)F)S(=O)(=O)C5COC5)nc4n3CC3CC3)c(C)n12 [Example 478, ~{N}-[2-[7-[(3~{R})-3-aminopiperidine-1-carbonyl]-5-methoxy-3-methylimidazo[1,2-a]pyridin-2-yl]-1-(cyclopropylmethyl)pyrrolo [2,3-b]pyridin-6-yl]-~{N}-(difluoromethyl)oxetane-3-sulfonamide]",236 nM
2,"COc1cc(C(=O)N2CCC[C@@H](N)[C@H]2C)cc2nc(-c3cc4ccc(N(C5CC5)S(C)(=O)=O)nc4n3CC3CC3)c(C)n12 [Example 479, ~{N}-[2-[7-[(2~{R}, 3~{R})-3-amino-2-methylpiperidine-1-carbonyl]-5-methoxy-3-methylimidazo[1,2-a]pyridin-2-yl]-1-(cyclopropylmethyl)pyrrolo [2,3-b]pyridin-6-yl]-~{N}-cyclopropylmethane-sulfonamide]",181 nM
3,"COc1cc(C(=O)N2CCC[C@@H](N)[C@H]2C)cc2nc(-c3cc4ccc(N(C)S(C)(=O)=O)nc4n3CC3CC3)c(C)n12 [Example 480, ~{N}-[2-[7-[(2~{R}, 3~{R})-3-amino-2-methylpiperidine-1-carbonyl]-5-methoxy-3-methylimidazo[1,2-a]pyridin-2-yl]-1-(cyclopropylmethyl)pyrrolo [2,3-b]pyridin-6-yl]-~{N}-methylmethanesulfonamide]",166 nM
4,"COc1cc(C(=O)N2C[C@H](N)CC[C@@H]2C)cc2nc(-c3cc4ccc(N(C)S(C)(=O)=O)nc4n3CC3CC3)c(C)n12 [Example 481, N-(2-(7-((2S,5R)-5-amino-2-methylpiperidine-1-carbonyl)-5-methoxy-3-methylimidazo[1,2-a]pyridin-2-yl)-1-(cyclopropylmethyl)-1H-pyrrolo[2,3-b]pyridin-6-yl)-N-methylmethanesulfonamide]",152 nM
5,"COc1cc(C(=O)N2[C@H]3CC[C@@H]2[C@H](N)C3)cc2nc(-c3cc4ccc([C@@H](C)NC(=O)C(C)(C)C)nc4n3CC34CC(C3)C4)c(C3CC3)n12 [Example 486, N—((R)-1-(2-(7-((1R,2R,4S)-2-amino-7-azabicyclo[2.2.1]heptane-7-carbonyl)-3-cyclopropyl-5-methoxyimidazo[1,2-a]pyridin-2-yl)-1-(bicyclo[1.1.1]pentan-1-ylmethyl)-1H-pyrrolo[2,3-b]pyridin-6-yl)ethyl)pivalamide]",666 nM
6,"COc1cc(C(=O)N2C[C@H](N)CC[C@@H]2C)cc2nc(-c3cc4ccc(N(C(F)F)S(C)(=O)=O)nc4n3CC34CC(C3)C4)c(C)n12 [Example 496, ~{N}-[2-[7-[(2~{S}, 5~{R})-5-amino-2-methylpiperidine-1-carbonyl]-5-methoxy-3-methylimidazo[1,2-a]pyridin-2-yl]-1-(1-bicyclo [1.1.1]pentanylmethyl)pyrrolo [2,3-b]pyridin-6-yl]-~{N}-(difluoromethyl) methanesulfonamide]",418 nM
7,"CCc1ccc2cc(-c3nc4cc(C(=O)N5[C@H]6CC[C@@H]5[C@H](N)C6)cc(OC)n4c3C)n(CCO)c2n1 [Example 497, [(1~{R},2~{R},4~{S})-2-amino-7-azabicyclo [2.2.1]heptan-7-yl]-[2-[6-ethyl-1-(2-hydroxyethyl)pyrrolo[2,3-b]pyridin-2-yl]-5-methoxy-3-methylimidazo [1,2-a]pyridin-7-yl]methanone]",1230 nM
8,"CCc1ccc2cc(-c3nc4cc(C(=O)N5[C@H]6CC[C@@H]5[C@H](N)C6)cc(OC)n4c3C)n(CCS(C)(=O)=O)c2n1 [Example 498, [(1~{R},2~{R},4~{S})-2-amino-7-azabicyclo [2.2.1]heptan-7-yl]-[2-[6-ethyl-1-(2-methylsulfonylethyl)pyrrolo[2,3-b]pyridin-2-yl]-5-methoxy-3-methylimidazo[1,2-a]pyridin-7-yl]methanone]",673 nM
9,"CCc1ccc2cc(-c3nc4cc(C(=O)N5[C@H]6CC[C@@H]5[C@H](N)C6)cc(OC)n4c3C)n(CCCO)c2n1 [Example 499, [(1~{R},2~{R},4~{S})-2-amino-7-azabicyclo [2.2.1]heptan-7-yl]-[2-[6-ethyl-1-(3-hydroxypropyl)pyrrolo[2,3-b]pyridin-2-yl]-5-methoxy-3-methylimidazo[1,2-a]pyridin-7-yl]methanone]",481 nM
10,"CCc1ccc2cc(-c3nc4cc(C(=O)N5[C@H]6CC[C@@H]5[C@H](N)C6)cc(OC)n4c3C)n(CC(C)(F)F)c2n1 [Example 500, [(1~{R},2~{R},4~{S})-2-amino-7-azabicyclo [2.2.1]heptan-7-yl]-[2-[1-(2,2-difluoropropyl)-6-ethylpyrrolo[2,3-b]pyridin-2-yl]-5-methoxy-3-methylimidazo [1,2-a]pyridin-7-yl] methanone]",160 nM

# Further compounds by falling IC50, results first:
row,IC50,Compound
1,32000 nM,"CCOC(=O)N(C)c1ccc2cc(-c3nc4cc(C(=O)N5[C@H]6CC[C@@H]5[C@@H](N)CC6)cc(OC)n4c3C)n(CC3CC3)c2n1 [Example 491, ethyl~{N}-[2-[7-[(1~{R}, 2~{S},5~{R})-2-amino-8-azabicyclo[3.2.1]octane-8-carbonyl]-5-methoxy-3-methylimidazo[1,2-a]pyridin-2-yl]-1-(cyclopropylmethyl)pyrrolo [2,3-b]pyridin-6-yl]-~{N}-methylcarbamate]"
2,2500 nM,"COc1cc(C(=O)N2C[C@H]3CC[C@@H]2[C@@H]3N)cc2nc(-c3cc4ccc(N(C)S(C)(=O)=O)nc4n3C)c(C)n12 [Example 493, N-[2-[7-[(1R,4R, 7R)-7-amino-2-azabicyclo [2.2.1]heptane-2-carbonyl]-5-methoxy-3-methyl-imidazo[1,2-a]pyridin-2-yl]-1-methyl-pyrrolo[2,3-b]pyridin-6-yl]-N-methyl-methanesulfonamide]"
3,827 nM,CCc1ccc2cc(-c3nc4cc(C(=O)N5[C@H]6CC[C@@H]5[C@H](N)C6)cc(OC)n4c3C)n(C[C@@H]3C[C@@H]3C(F)(F)F)c2n1 [Example 501]
4,276 nM,"COc1cc(C(=O)N2CCC[C@@H](N)C2)cc2nc(-c3cc4ccc(N(C(F)F)S(C)(=O)=O)nc4n3CC(F)(F)F)c(C)n12 [Example 494, ~{N}-[2-[7-[(3~{R})-3-aminopiperidine-1-carbonyl]-5-methoxy-3-methylimidazo[1,2-a]pyridin-2-yl]-1-(2,2,2-trifluoroethyl)pyrrolo [2,3-b]pyridin-6-yl]-~{N}-(difluoromethyl) methanesulfonamide]"
5,258 nM,"CCc1ccc2cc(-c3nc4cc(C(=O)N5[C@H]6CC[C@@H]5[C@H](N)C6)cc(OC)n4c3C)n(CC(F)F)c2n1 [Example 502, [(1~{R},2~{R},4~{S})-2-amino-7-azabicyclo [2.2.1]heptan-7-yl]-[2-[1-(2,2-difluoroethyl)-6-ethylpyrrolo[2,3-b]pyridin-2-yl]-5-methoxy-3-methylimidazo [1,2-a]pyridin-7-yl] methanone]"
6,202 nM,"COc1cc(C(=O)N2[C@@H]3CC[C@@H](N)[C@H]2CC3)cc2nc(-c3cc4ccc(N(C(F)F)S(C)(=O)=O)nc4n3CC(F)(F)F)c(C)n12 [Example 495, ~{N}-[2-[7-[(1~{R},2~{R}, 5~{R})-2-amino-8-azabicyclo[3.2.1]octane-8-carbonyl]-5-methoxy-3-methylimidazo[1,2-a]pyridin-2-yl]-1-(2,2,2-trifluoroethyl)pyrrolo [2,3-b]pyridin-6-yl]-~{N}-(difluoromethyl) methanesulfonamide]"
7,177 nM,"COc1cc(C(=O)N2[C@H]3CC[C@@H]2[C@H](N)C3)cc2nc(-c3cc4ccc([C@@H](C)NC(=O)c5ccccc5)nc4n3CC34CC(C3)C4)c(C)n12 [Example 489, ~{N}-[(1~{R})-1-[2-[7-[(1~{R},2~{R},4~{S})-2-amino-7-azabicyclo[2.2.1]heptane-7-carbonyl]-5-methoxy-3-methylimidazo[1,2-a]pyridin-2-yl]-1-(1-bicyclo [1.1.1]pentanylmethyl)pyrrolo[2,3-b]pyridin-6-yl]ethyl]benzamide]"
8,171 nM,"COc1cc(C(=O)N2CCC[C@@H](N)C2)cc2nc(-c3cc4ccc(N(C)S(C)(=O)=O)nc4n3CC3CC3)c(C)n12 [Example 482, ~{N}-[2-[7-[(3~{R})-3-aminopiperidine-1-carbonyl]-5-methoxy-3-methylimidazo[1,2-a]pyridin-2-yl]-1-(cyclopropylmethyl)pyrrolo [2,3-b]pyridin-6-yl]-~{N}-methylmethanesulfonamide]"
9,145 nM,"CCN(c1ccc2cc(-c3nc4cc(C(=O)N5CCC[C@@H](N)C5)cc(OC)n4c3C)n(CC3CC3)c2n1)S(C)(=O)=O [Example 484, ~{N}-[2-[7-[(3~{R})-3-aminopiperidine-1-carbonyl]-5-methoxy-3-methylimidazo[1,2-a]pyridin-2-yl]-1-(cyclopropylmethyl)pyrrolo [2,3-b]pyridin-6-yl]-~{N}-ethylmethanesulfonamide]"
10,128 nM,"CCN(c1ccc2cc(-c3nc4cc(C(=O)N5CCC[C@@H](N)[C@H]5C)cc(OC)n4c3C)n(CC3CC3)c2n1)S(C)(=O)=O [Example 483, ~{N}-[2-[7-[(2~{R}, 3~{R})-3-amino-2-methylpiperidine-1-carbonyl]-5-methoxy-3-methylimidazo[1,2-a]pyridin-2-yl]-1-(cyclopropylmethyl)pyrrolo [2,3-b]pyridin-6-yl]-~{N}-ethylmethanesulfonamide]"
11,86.8 nM,COc1cc(C(=O)N2[C@H]3CC[C@@H]2[C@H](N)C3)cc2nc(-c3cc4ccc([C@@H](C)NC(=O)N5CCC5)nc4n3CC34CC(C3)C4)c(C)n12 [Example 488]
12,75.4 nM,"COc1cc(C(=O)N2[C@H]3CC[C@@H]2[C@H](N)C3)cc2nc(-c3cc4ccc(N(C)S(C)(=O)=O)nc4n3CC3CC3C)c(C)n12 (stereo partly shown) [Example 490, ~{N}-[2-[7-[(1~{R},2~{R}, 4~{S})-2-amino-7-azabicyclo[2.2.1]heptane-7-carbonyl]-5-methoxy-3-methylimidazo[1,2-a]pyridin-2-yl]-1-[(2-methylcyclopropyl)methyl]pyrrolo[2,3-b]pyridin-6-yl]-~{N}-methylmethanesulfonamide]"
